Data: publication PMC5218480 (PLoS ONE, 2017)

Test system: MV-4-11 cells
Assay: Gene expression microarray analysis (Affymetrix PrimeView) and GSEA
Type: cell-based, human
Set-up: RFU PODN (11730768_x_at) / Fold change /veh PODN (11730768_x_at) / RFU LINC00158 (11744669_a_at) / Fold change /veh LINC00158 (11744669_a_at) / RFU DUSP10 (11751237_a_at) / Fold change /veh DUSP10 (11751237_a_at) / RFU ID3 (11757404_x_at) / Fold change /veh ID3 (11757404_x_at) / RFU PLEKHG5 (11737974_s_at) / Fold change /veh PLEKHG5 (11737974_s_at) / RFU LRRC4B (11730491_at) / Fold change /veh LRRC4B (11730491_at) / RFU GIMAP4 (11747438_a_at) / Fold change /veh GIMAP4 (11747438_a_at) / RFU KRT8 (11758183_x_at) / Fold change /veh KRT8 (11758183_x_at) / RFU CNN1 (11734310_a_at) / Fold change /veh CNN1 (11734310_a_at) / RFU VPS37D (11726825_at) / Fold change /veh VPS37D (11726825_at) / RFU C10orf10 (11716522_x_at) / Fold change /veh C10orf10 (11716522_x_at) / RFU KIR2DL2 /// KIR2DL4 /// KIR2DL5A /// KIR2DL5B /// KIR2DS1 /// KIR2DS2 /// KIR2DS3 /// KIR2DS4 /// KIR3DL3 /// KIR3DL3 /// KIR3DS1 (11738374_at) / Fold change /veh KIR2DL2 /// KIR2DL4 /// KIR2DL5A /// KIR2DL5B /// KIR2DS1 /// KIR2DS2 /// KIR2DS3 /// KIR2DS4 /// KIR3DL3 /// KIR3DL3 /// KIR3DS1 (11738374_at) / RFU C1QL1 (11718748_at) / Fold change /veh C1QL1 (11718748_at) / RFU TMPRSS4 (11747572_a_at) / Fold change /veh TMPRSS4 (11747572_a_at) / RFU HAMP (11756126_x_at) / Fold change /veh HAMP (11756126_x_at) / RFU RNFT2 (11725882_a_at) / Fold change /veh RNFT2 (11725882_a_at) / RFU NR4A2 (11747474_a_at) / Fold change /veh NR4A2 (11747474_a_at) / RFU ABCC12 (11746883_a_at) / Fold change /veh ABCC12 (11746883_a_at) / RFU TMEM136 (11760407_x_at) / Fold change /veh TMEM136 (11760407_x_at) / RFU CLDN22 /// WWC2 (11732394_at) / Fold change /veh CLDN22 /// WWC2 (11732394_at) / RFU HLA-DPB1 (11760878_x_at) / Fold change /veh HLA-DPB1 (11760878_x_at) / RFU SPINT1 (11716480_a_at) / Fold change /veh SPINT1 (11716480_a_at) / RFU GAP43 (11754022_s_at) / Fold change /veh GAP43 (11754022_s_at) / RFU A4GNT (11735810_at) / Fold change /veh A4GNT (11735810_at) / RFU PRB3 (11715151_x_at) / Fold change /veh PRB3 (11715151_x_at) / RFU TUBB4B (11761932_at) / Fold change /veh TUBB4B (11761932_at) / RFU CAPN14 (11732068_a_at) / Fold change /veh CAPN14 (11732068_a_at) / RFU TMCC2 (11721928_a_at) / Fold change /veh TMCC2 (11721928_a_at) / RFU IRGQ (11745062_a_at) / Fold change /veh IRGQ (11745062_a_at) / RFU FAM174B (11720279_a_at) / Fold change /veh FAM174B (11720279_a_at) / RFU TMPRSS4 (11748680_a_at) / Fold change /veh TMPRSS4 (11748680_a_at) / RFU FAM212B (11763350_a_at) / Fold change /veh FAM212B (11763350_a_at) / RFU PLEKHG5 (11743358_a_at) / Fold change /veh PLEKHG5 (11743358_a_at) / RFU ZSCAN30 (11745921_a_at) / Fold change /veh ZSCAN30 (11745921_a_at) / RFU CMKLR1 (11741424_a_at) / Fold change /veh CMKLR1 (11741424_a_at) / RFU LOC101060620 /// MAPK8IP1 (11723275_at) / Fold change /veh LOC101060620 /// MAPK8IP1 (11723275_at) / RFU SPTSSB (11747773_x_at) / Fold change /veh SPTSSB (11747773_x_at) / RFU PRSS12 (11739890_at) / Fold change /veh PRSS12 (11739890_at) / RFU BIN1 (11741810_x_at) / Fold change /veh BIN1 (11741810_x_at) / RFU WNT11 (11732464_a_at) / Fold change /veh WNT11 (11732464_a_at) / RFU C10orf10 (11716521_a_at) / Fold change /veh C10orf10 (11716521_a_at) / RFU C5orf56 (11738089_at) / Fold change /veh C5orf56 (11738089_at) / RFU CYB561 (11721691_x_at) / Fold change /veh CYB561 (11721691_x_at) / RFU ANKRD19P (11752326_a_at) / Fold change /veh ANKRD19P (11752326_a_at) / RFU OR2T12 /// OR2T33 /// OR2T8 (11738714_s_at) / Fold change /veh OR2T12 /// OR2T33 /// OR2T8 (11738714_s_at) / RFU VCAN (11748164_a_at) / Fold change /veh VCAN (11748164_a_at) / RFU JSRP1 (11732532_at) / Fold change /veh JSRP1 (11732532_at) / RFU KRTAP10-11 (11738290_x_at) / Fold change /veh KRTAP10-11 (11738290_x_at) / RFU MYO3A (11730013_a_at) / Fold change /veh MYO3A (11730013_a_at) / RFU EBF3 (11725865_a_at) / Fold change /veh EBF3 (11725865_a_at) / RFU CAMK2N1 (11719241_x_at) / Fold change /veh CAMK2N1 (11719241_x_at) / RFU C5orf56 (11738088_a_at) / Fold change /veh C5orf56 (11738088_a_at) / RFU OLFML3 (11715873_a_at) / Fold change /veh OLFML3 (11715873_a_at) / RFU LOC100653217 /// NTM (11731650_a_at) / Fold change /veh LOC100653217 /// NTM (11731650_a_at) / RFU MAPK11 (11762145_a_at) / Fold change /veh MAPK11 (11762145_a_at) / RFU FIZ1 (11724087_x_at) / Fold change /veh FIZ1 (11724087_x_at) / RFU OASL (11726364_x_at) / Fold change /veh OASL (11726364_x_at) / RFU SOX15 (11748057_x_at) / Fold change /veh SOX15 (11748057_x_at) / RFU CD79A (11719716_a_at) / Fold change /veh CD79A (11719716_a_at) / RFU HIST1H1D (11736915_at) / Fold change /veh HIST1H1D (11736915_at) / RFU CASKIN2 (11723855_a_at) / Fold change /veh CASKIN2 (11723855_a_at) / RFU LOC730098 (11760151_x_at) / Fold change /veh LOC730098 (11760151_x_at) / RFU OR4N2 (11742367_at) / Fold change /veh OR4N2 (11742367_at) / RFU PRRT2 (11749266_a_at) / Fold change /veh PRRT2 (11749266_a_at) / RFU SNX32 (11753110_a_at) / Fold change /veh SNX32 (11753110_a_at) / RFU CDHR5 (11726645_a_at) / Fold change /veh CDHR5 (11726645_a_at) / RFU RCAN1 (11760418_a_at) / Fold change /veh RCAN1 (11760418_a_at) / RFU FAM167A (11723789_a_at) / Fold change /veh FAM167A (11723789_a_at) / RFU FAM26E (11764081_at) / Fold change /veh FAM26E (11764081_at) / RFU ISYNA1 (11749810_s_at) / Fold change /veh ISYNA1 (11749810_s_at) / RFU ACY1 (11761880_at) / Fold change /veh ACY1 (11761880_at) / RFU 11764098_at / Fold change /veh 11764098_at / RFU SAMD14 (11745864_x_at) / Fold change /veh SAMD14 (11745864_x_at) / RFU NPB (11741838_a_at) / Fold change /veh NPB (11741838_a_at) / RFU TMPRSS6 (11731388_a_at) / Fold change /veh TMPRSS6 (11731388_a_at) / RFU KRTAP10-2 (11738614_at) / Fold change /veh KRTAP10-2 (11738614_at) / RFU ARHGAP8 /// PRR5-ARHGAP8 (11727945_x_at) / Fold change /veh ARHGAP8 /// PRR5-ARHGAP8 (11727945_x_at) / RFU KRTAP5-7 /// NADSYN1 (11734609_at) / Fold change /veh KRTAP5-7 /// NADSYN1 (11734609_at) / RFU RASL12 (11751679_a_at) / Fold change /veh RASL12 (11751679_a_at) / RFU CDKN2B (11736163_a_at) / Fold change /veh CDKN2B (11736163_a_at) / RFU PRF1 (11729649_at) / Fold change /veh PRF1 (11729649_at) / RFU, ZNF638 /// ZNF638-IT1 / Fold change vs veh, ZNF638 /// ZNF638-IT1 / RFU, PANK3 / Fold change vs veh, PANK3 / RFU, SH3YL1 / Fold change vs veh, SH3YL1 / RFU, ZEB2 / Fold change vs veh, ZEB2 / RFU, NRIP1 / Fold change vs veh, NRIP1 / RFU, PTTG1IP / Fold change vs veh, PTTG1IP / RFU, CAPN2 / Fold change vs veh, CAPN2 / RFU, MED14 / Fold change vs veh, MED14 / RFU, SNORA58 / Fold change vs veh, SNORA58 / RFU, C1orf63 / Fold change vs veh, C1orf63 / RFU, LRRFIP1 / Fold change vs veh, LRRFIP1 / RFU, NDUFAF7 / Fold change vs veh, NDUFAF7 / RFU, SLC12A2 / Fold change vs veh, SLC12A2 / RFU, IBTK / Fold change vs veh, IBTK / RFU, ESF1 / Fold change vs veh, ESF1 / Fold change vs veh, TMEM50B / RFU, TAOK1 / Fold change vs veh, TAOK1 / RFU, ACBD3 / Fold change vs veh, ACBD3 / RFU, TMA16 / Fold change vs veh, TMA16 / RFU, RWDD3 / Fold change vs veh, RWDD3 / RFU, BCAT1 / Fold change vs veh, BCAT1 / RFU, EDEM3 / Fold change vs veh, EDEM3 / RFU, TMEM33 / Fold change vs veh, TMEM33 / RFU, WDR75 / Fold change vs veh, WDR75 / RFU, AHCTF1 / Fold change vs veh, AHCTF1 / RFU, TFRC / Fold change vs veh, TFRC / RFU, ZDHHC17 / Fold change vs veh, ZDHHC17 / RFU, NOM1 / Fold change vs veh, NOM1 / RFU, ARL8B / Fold change vs veh, ARL8B / RFU, ZBTB11 / Fold change vs veh, ZBTB11 / RFU, TAMM41 / Fold change vs veh, TAMM41 / RFU, KIAA1704 /// LOC100996395 / Fold change vs veh, KIAA1704 /// LOC100996395 / RFU, ING1 / Fold change vs veh, ING1 / RFU, TRMT61B / Fold change vs veh, TRMT61B / RFU, FUBP3 / Fold change vs veh, FUBP3 / RFU, TP53 / Fold change vs veh, TP53 / RFU, TNKS2 / Fold change vs veh, TNKS2 / RFU, ZFP14 / Fold change vs veh, ZFP14 / RFU, ACTR2 / Fold change vs veh, ACTR2 / RFU, PPP3R1 / Fold change vs veh, PPP3R1 / RFU, PIK3R1 / Fold change vs veh, PIK3R1 / RFU, HNRNPA1 / Fold change vs veh, HNRNPA1 / RFU, RNF170 / Fold change vs veh, RNF170 / RFU, ZNF28 / Fold change vs veh, ZNF28 / RFU, RNGTT / Fold change vs veh, RNGTT / RFU, OGT / Fold change vs veh, OGT / RFU, BRD1 / Fold change vs veh, BRD1 / RFU, MARS / Fold change vs veh, MARS / RFU, ZNF655 / Fold change vs veh, ZNF655 / RFU, FAHD1 / Fold change vs veh, FAHD1 / RFU, BDP1 / Fold change vs veh, BDP1 / RFU, LRRCC1 / Fold change vs veh, LRRCC1 / RFU, ARID1A / Fold change vs veh, ARID1A / RFU, ZNF146 / Fold change vs veh, ZNF146 / RFU, ZNF330 / Fold change vs veh, ZNF330 / RFU, GPN3 / Fold change vs veh, GPN3 / RFU, C9orf123 / Fold change vs veh, C9orf123 / RFU, N4BP2L2 / Fold change vs veh, N4BP2L2 / RFU, ARFIP1 / Fold change vs veh, ARFIP1 / RFU, FAM179B / Fold change vs veh, FAM179B / RFU, BCL10 / Fold change vs veh, BCL10 / RFU, UHRF1BP1L / Fold change vs veh, UHRF1BP1L / RFU, BET1 / Fold change vs veh, BET1 / RFU, CNOT2 / Fold change vs veh, CNOT2 / RFU, ZNF268 / Fold change vs veh, ZNF268 / Fold change vs veh, ZNF507 / RFU, DGCR2 / Fold change vs veh, DGCR2 / RFU, WDSUB1 / Fold change vs veh, WDSUB1 / Fold change vs veh, HSP90B1 /// MIR3652 / RFU, ADSS / Fold change vs veh, ADSS / RFU, GK / Fold change vs veh, GK / RFU, ZNF148 / Fold change vs veh, ZNF148 / RFU, TAF9 / Fold change vs veh, TAF9 / RFU, SLC1A5 / Fold change vs veh, SLC1A5 / RFU, SLMO2 / Fold change vs veh, SLMO2 / RFU, ABCC4 / Fold change vs veh, ABCC4 / RFU, LOC101060439 /// RAP1B / Fold change vs veh, LOC101060439 /// RAP1B / RFU, RFX7 / Fold change vs veh, RFX7 / RFU, GTPBP10 / Fold change vs veh, GTPBP10 / RFU, CNEP1R1 / Fold change vs veh, CNEP1R1 / RFU, BIVM-ERCC5 /// ERCC5 / Fold change vs veh, BIVM-ERCC5 /// ERCC5 / RFU, ILF3 / Fold change vs veh, ILF3 / RFU 11762660_at / Fold change /veh 11762660_at / RFU VCAN (11757783_s_at) / Fold change /veh VCAN (11757783_s_at) / RFU DDX43 (11728927_at) / Fold change /veh DDX43 (11728927_at) / RFU KRT8 (11758188_x_at) / Fold change /veh KRT8 (11758188_x_at) / RFU NKD1 (11759106_at) / Fold change /veh NKD1 (11759106_at) / RFU SRD5A1 (11742802_a_at) / Fold change /veh SRD5A1 (11742802_a_at) / RFU TPSAB1 /// TPSB2 (11721975_s_at) / Fold change /veh TPSAB1 /// TPSB2 (11721975_s_at) / RFU GSTM3 (11746129_a_at) / Fold change /veh GSTM3 (11746129_a_at) / RFU IL23R (11737362_x_at) / Fold change /veh IL23R (11737362_x_at) / RFU TMEM51 (11727254_a_at) / Fold change /veh TMEM51 (11727254_a_at) / RFU PIWIL2 (11732686_x_at) / Fold change /veh PIWIL2 (11732686_x_at) / RFU ORM1 (11744905_x_at) / Fold change /veh ORM1 (11744905_x_at) / RFU CCDC152 (11743942_at) / Fold change /veh CCDC152 (11743942_at) / RFU ECM1 (11717891_a_at) / Fold change /veh ECM1 (11717891_a_at) / RFU IL23R (11748794_a_at) / Fold change /veh IL23R (11748794_a_at) / RFU TNFAIP8L3 (11732012_x_at) / Fold change /veh TNFAIP8L3 (11732012_x_at) / RFU MBOAT4 (11741988_at) / Fold change /veh MBOAT4 (11741988_at) / RFU 11764193_at / Fold change /veh 11764193_at / RFU TMEM53 (11763286_at) / Fold change /veh TMEM53 (11763286_at) / RFU MAGEB2 (11727129_at) / Fold change /veh MAGEB2 (11727129_at) / RFU TMEM200A (11744735_a_at) / Fold change /veh TMEM200A (11744735_a_at) / RFU CCDC152 (11751479_a_at) / Fold change /veh CCDC152 (11751479_a_at) / RFU FAM211A (11726209_a_at) / Fold change /veh FAM211A (11726209_a_at) / RFU RGS16 (11746705_a_at) / Fold change /veh RGS16 (11746705_a_at) / RFU VCAN (11755009_s_at) / Fold change /veh VCAN (11755009_s_at) / RFU RHOB (11743442_s_at) / Fold change /veh RHOB (11743442_s_at) / RFU RGS16 (11720943_a_at) / Fold change /veh RGS16 (11720943_a_at) / RFU RGS16 (11720944_at) / Fold change /veh RGS16 (11720944_at) / RFU, VPS4B / Fold change vs veh, VPS4B / RFU, CREB1 / Fold change vs veh, CREB1 / RFU, DNAJC13 / Fold change vs veh, DNAJC13 / RFU, GNAQ / Fold change vs veh, GNAQ / RFU, CDK5R1 / Fold change vs veh, CDK5R1 / RFU, ZRANB3 / Fold change vs veh, ZRANB3 / RFU, CUL4A / Fold change vs veh, CUL4A / RFU, CCNY / Fold change vs veh, CCNY / RFU, UFL1 / Fold change vs veh, UFL1 / RFU, COG3 / Fold change vs veh, COG3 / RFU, DIAPH2 / Fold change vs veh, DIAPH2 / RFU, SKA2 / Fold change vs veh, SKA2 / RFU, AFF3 / Fold change vs veh, AFF3 / RFU, LMF1 / Fold change vs veh, LMF1 / RFU, IPO11 / Fold change vs veh, IPO11 / RFU, DFFB / Fold change vs veh, DFFB / RFU, FOXP1 / Fold change vs veh, FOXP1 / RFU, CARD8 / Fold change vs veh, CARD8 / RFU, STRN3 / Fold change vs veh, STRN3 / RFU, ADK / Fold change vs veh, ADK / RFU, RASSF2 / Fold change vs veh, RASSF2 / RFU, WIPF1 / Fold change vs veh, WIPF1 / RFU, LARP1B / Fold change vs veh, LARP1B / RFU, RASA1 / Fold change vs veh, RASA1 / RFU, RB1 / Fold change vs veh, RB1 / RFU, PPFIA1 / Fold change vs veh, PPFIA1 / RFU, MAT2A / Fold change vs veh, MAT2A / RFU, CCT5 / Fold change vs veh, CCT5 / RFU, WDR92 / Fold change vs veh, WDR92 / RFU, CUX1 / Fold change vs veh, CUX1 / RFU, TTC7A / Fold change vs veh, TTC7A / RFU, TMEM135 / Fold change vs veh, TMEM135 / RFU, DEPTOR / Fold change vs veh, DEPTOR / RFU, CPM / Fold change vs veh, CPM / RFU, DNAJB6 / Fold change vs veh, DNAJB6 / RFU, CACNA2D3 / Fold change vs veh, CACNA2D3 / RFU, DTX4 / Fold change vs veh, DTX4 / RFU, TFCP2 / Fold change vs veh, TFCP2 / RFU, GMCL1 /// GMCL1P1 / Fold change vs veh, GMCL1 /// GMCL1P1 / RFU, AEBP2 / Fold change vs veh, AEBP2 / RFU, SNHG1 /// SNORD22 /// SNORD25 /// SNORD26 /// SNORD27 /// SNORD28 /// SNORD29 /// SNORD31 / Fold change vs veh, SNHG1 /// SNORD22 /// SNORD25 /// SNORD26 /// SNORD27 /// SNORD28 /// SNORD29 /// SNORD31 / Fold change (Aza/veh), C12orf56 (ProbeSet 11735607_a_at) / Fold change (ACY-1035/veh), C12orf56 (ProbeSet 11735607_a_at) / Fold change (Aza/veh), FGFR1OP (ProbeSet 11751329_s_at) / Fold change (ACY-1035/veh), FGFR1OP (ProbeSet 11751329_s_at) / Fold change (Aza/veh), VPS36 (ProbeSet 11739960_a_at) / Fold change (ACY-1035/veh), VPS36 (ProbeSet 11739960_a_at) / RFU SYPL1 (11715823_x_at) / Fold change /veh SYPL1 (11715823_x_at) / RFU IGFBP7 (11715501_s_at) / Fold change /veh IGFBP7 (11715501_s_at) / RFU REEP3 (11722064_at) / Fold change /veh REEP3 (11722064_at) / RFU IGLL1 (11728026_x_at) / Fold change /veh IGLL1 (11728026_x_at): dose or concentration left out as unconfirmed
Conditions: ProbeSet 11720154_at; LIST B

`Nc1ccc(-c2cccs2)cc1NC(=O)c1ccc2c(c1)cc(C1CC1)n2CCN1CCOCC1` [ACY-1035] was tested, and the “RFU, NRIP1” value was 473.81 RFU.
